For 4 compounds, LD50 results are on record in patent publication US20030220402A1, “Cancer remedy comprising anthranilic acid derivatives as active ingredients” (priority 2000, published 2003).

SMILES strings stand for the structures.

The subject of the test is L929 cells. In words: Measurement of cytotoxicity using mouse tumorous cells L929 (Neutral Red assay). Conditions: 3 days culture, concentration manifesting 50% cytotoxicity. The test is classed as cell-based. As to the method:
Measurement of Cytotoxicity Using Mouse Tumorous Cells L929
The cytotoxic activity against tumorous cells was measured according to a Neutral Red assay method [the method described in Journal of Tissue Culture Methodology, vol. 9, p. […] 24, p. […] Namely, 100 μL each of L929 cells (5×10^4 cells/mL, 10% FCS/RPM1) was added to a 96-well ELISA plate, and the cells were cultured overnight. The test compound at each measuring concentration was dissolved in a DMSO solution and added, and culturing was further continued for 3 days. To the cultured cells, was then added 2.0 μL of Neutral Red so as to provide the final concentration of 0.01%. Incubation was conducted at 37° C. for 1 hour, and the cell culture supernatant was removed. The resultant cultured cells were washed with […] of PBS twice to remove the excessive Neutral Red. To the washed cells, was then added 100 μL of a 50% ethanol-1% aqueous acetic acid. The dye incorporated in the cells was extracted, and the amount of the dye was determined by measuring the absorbance at 490 nm. The case where a drug was not added was taken as 100%, and the cytotoxicity was determined at the concentrations of the respective test compounds. […] The measurements under the same conditions in two sets each were made, and the data were, obtained from the average values.
Regarding `COC(=O)c1ccccc1NC(=O)Cc1ccc(Oc2ccc(O)cc2)cc1` [Compound No. 296, methyl 2-(4-(4-hydroxyphenoxy)phenylacetamido)benzoate], the LD50 is over 5 µM.
The same measure for `O=C(Cc1ccc(Oc2ccc3ccccc3c2)cc1)Nc1ccccc1C(=O)O` [Compound No. 59, 2-(4-(2-naphthyloxy)phenylacetamido)benzoic acid]: 1.6 µM; for `O=C(Cc1ccc(Oc2ccc(OCc3ccccc3)cc2)cc1)Nc1ccccc1C(=O)O` [Compound No. 316, 2-(4-(4-benzyloxyphenoxy)phenylacetamido)benzoic acid]: 0.60 µM.
With `O=C(Cc1ccc(Oc2ccc(OC3CCCCC3)cc2)cc1)Nc1ccccc1C(=O)O` [compound 288, 2-(4-(4-cyclohexyloxyphenoxy)phenylacetamido)benzoic acid], the LD50 stood at 0.20 µM.
